Assay results: PubChem BioAssay (NCI)
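96-well plates; 48 h exposure; 5 concentrations. Endpoints by linear interpolation between flanking doses. Not reached: highest tested concentration assigned. Definition used: TGI = concentration required for complete inhibition of growth.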

How the values were obtained:
Test in all cases: growth of human tumour cells (NCI), 48 h
[1] = test system: PC-3 prostate
[2] = test system: HS 578T breast
[3] = test system: SF-539 CNS
[4] = test system: OVCAR-5 ovarian
[5] = test system: A498 renal
[6] = test system: MALME-3M melanoma
[7] = test system: HCC-2998 colon
[8] = test system: KM12 colon
[9] = test system: SK-MEL-2 melanoma
[10] = test system: OVCAR-3 ovarian
[11] = test system: SK-MEL-5 melanoma
[12] = test system: SF-268 CNS
[13] = test system: OVCAR-4 ovarian
[14] = test system: NCI-H522 lung
[15] = test system: TK-10 renal
[16] = test system: OVCAR-8 ovarian
[17] = test system: M14 melanoma
[18] = test system: NCI-H226 lung
[19] = test system: K-562 leukemia

SMILES	TGI [1] [µM]	TGI [2] [µM]	TGI [3] [µM]	TGI [4] [µM]	TGI [5] [µM]	TGI [6] [µM]	TGI [7] [µM]	TGI [8] [µM]	TGI [9] [µM]	TGI [10] [µM]	TGI [11] [µM]	TGI [12] [µM]	TGI [13] [µM]	TGI [14] [µM]	TGI [15] [µM]	TGI [16] [µM]	TGI [17] [µM]	TGI [18] [µM]	TGI [19] [µM]
Cc1c(-c2ccc(O)cc2)n(CCCCCCNCCOC(=O)NCCCc2ccc(N(CCCl)CCCl)cc2)c2ccc(O)cc12	11.4	7.49	3.11	28.9	28.7	3.12	3.52	3.75	23.8	6.41	4.06	3.45	4.44	3.44	6.06	2.88	3	–	–
CCCCS(=O)(=O)CCC(N)P(=O)(O)O (stereo not given)	> 100	> 100	–	> 100	–	> 100	–	> 100	> 100	> 100	> 100	> 100	> 100	> 100	> 100	> 100	> 100	> 100	> 100
CN(C)CCCN1c2ccc([N+](=O)[O-])cc2CCc2cccc([N+](=O)[O-])c21	42.8	31.7	31.5	33.3	–	28	26.3	28.9	33.5	28.8	30.2	29	13.9	32.1	23.2	32.3	28	29.3	52
Cc1ccc(-c2n[nH]c(Cc3nc(-c4ccc(C)cc4)n[nH]3)n2)cc1	> 100	–	> 100	> 100	–	–	> 100	> 100	> 100	> 100	> 100	> 100	> 100	> 100	> 100	> 100	> 100	–	> 100
COC(=O)NC(Nc1ccccn1)(C(F)(F)F)C(F)(F)F	–	> 100	> 100	> 100	> 100	> 100	> 100	> 100	> 100	> 100	> 100	> 100	–	> 100	> 100	> 100	> 100	> 100	> 100
COC1(c2ccc(Cl)cc2)SC=C(C)n2c1noc2=O (stereo not given)	> 100	> 100	–	> 100	> 100	> 100	> 100	> 100	–	> 100	> 100	> 100	> 100	> 100	–	–	> 100	–	> 100
S=C(N1CCN(c2ccc(Cl)c(Cl)c2)CC1)N1CCN(c2ccc(Cl)c(Cl)c2)CC1	28.2	26	–	44.7	–	28.1	26.6	27.1	41.7	26.3	28.4	32.4	28.3	22.8	26.1	28.3	32.3	23.8	26.7
C/C(=C\CO)CC/C=C(\C)CNc1c(F)c(F)c(F)c(F)c1F	58.5	74.6	40.3	> 100	–	57.2	59.8	77.5	48.6	52.8	31.9	67.3	> 100	46.3	85.7	38	> 100	75.1	92
CN1CCc2cc3c(c4c2C1C(O)c1ccccc1-4)OCO3 (stereo not given)	18.6	19.5	> 100	44.4	8.45	23.2	22.2	24	21.7	44.1	26.4	27.7	29.5	13.7	> 100	50.5	19.5	–	63.5
O=[N+]([O-])c1cccc2nc3ccccc3c(NCCCCNc3c4ccccc4nc4cccc([N+](=O)[O-])c34)c12	> 100	0.935	0.102	1.64	–	0.255	0.164	0.204	> 100	0.231	0.165	0.189	0.508	0.0639	0.0304	1.09	0.199	2.66	–
NC1CC(=O)c2cscc21 (stereo not given)	> 100	–	> 100	> 100	–	–	–	43.1	> 100	34.8	> 100	–	> 100	–	33.6	> 100	> 100	–	> 100
COc1cc(-c2ccc(Br)[nH]2)[nH]c1C=NCC(C)C	4.39	5.26	5.84	5.05	7.16	3.13	4.67	3.94	3.07	3.79	2.87	9.1	12.8	–	6.56	6.28	4.28	–	14.2
C/C=C/C(C#N)(/C=C/c1ccccc1)OP1(=O)OC(c2ccccc2)C(C)N1C (stereo not given)	33.3	49.9	35.1	43.6	35.6	38.8	27.5	36.7	35.9	35.5	32.1	42.1	–	42.2	37.8	35.5	37.1	–	39.3
C=CC[C@H]1O[Si](C(C)(C)C)(C(C)(C)C)[C@H](C)[C@H]1C	> 100	–	> 100	> 100	> 100	> 100	> 100	> 100	> 100	> 100	> 100	–	> 100	> 100	> 100	> 100	> 100	> 100	> 100
